Experimental data taken from patent US20170190671A1, “BIS(ARYL)CATECHOL DERIVATIVES AS HERBICIDES” (E I DU PONT DE NEMOURS AND COMPANY, priority 2014, published 2017).

Assays:
Assay type in all cases: in vivo
[1] = test system: lambsquarters (Chenopodium album); experiment: Test C postemergence; details: Chenopodium album, post-emergence, 336 h, Postemergence, scale 0 to 100, read-out: Plant response rating, Lambsquarters
Summary of the method: (§1)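 Treatment is preemergence to seeds in a loam and sand soil, or postemergence to plants 2 to 18 cm high in a peat moss-based medium. The compound is delivered in a non-phytotoxic solvent mixture including surfactant. Effects are judged by eye 13 to 15 days later on a 0 to 100 scale.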

[2] = test system: ragweed (common ragweed, Ambrosia elatior); experiment: Test C postemergence; details: Ambrosia artemisiifolia, post-emergence, 336 h, Postemergence, scale 0 to 100, read-out: Plant response rating, Ragweed
Summary of the method: as §1

soybean (Glycine max) [3] = experiment: Test C postemergence; details: Glycine max, post-emergence, Postemergence, scale 0 to 100, read-out: Plant response rating, Soybean
Summary of the method: as §1

corn (Zea mays) [4] = experiment: Test C postemergence; details: Zea mays, post-emergence, 336 h, Postemergence, scale 0 to 100
Summary of the method: as §1

[5] = test system: waterhemp (common waterhemp, Amaranthus rudis); experiment: Test C postemergence; details: Amaranthus tuberculatus, post-emergence, Postemergence, scale 0 to 100, read-out: Plant response rating, Waterhemp
Summary of the method: as §1

[6] = test system: galium (catchweed bedstraw, Galium aparine); experiment: Test C postemergence; details: Galium, post-emergence, 336 h, Postemergence, scale 0 to 100, read-out: Plant response rating, Galium
Summary of the method: as §1

[7] = test system: yellow nutsedge (Cyperus esculentus); experiment: Test C preemergence; details: Cyperus, pre-emergence, 336 h, scale 0 to 100, read-out: Plant response rating, Nutsedge, Yellow
Summary of the method: as §1

[8] = test system: johnsongrass (Sorghum halepense); experiment: Test C preemergence; details: Sorghum halepense, pre-emergence, 336 h, scale 0 to 100, read-out: Plant response rating, Johnsongrass
Summary of the method: as §1

[9] = test system: lambsquarters (Chenopodium album); experiment: Test C preemergence; details: Chenopodium album, pre-emergence, 336 h, scale 0 to 100, read-out: Plant response rating, Lambsquarters
Summary of the method: as §1

soybean (Glycine max) [10] = experiment: Test C preemergence; details: Glycine max, pre-emergence, scale 0 to 100, read-out: Plant response rating, Soybean
Summary of the method: as §1

[11] = test system: large (Lg) crabgrass (Digitaria sanguinalis); experiment: Test C preemergence; details: Digitaria sanguinalis, pre-emergence, 336 h, scale 0 to 100, read-out: Plant response rating, Crabgrass, Large
Summary of the method: as §1

[12] = test system: Italian ryegrass (Lolium multiflorum); experiment: Test C preemergence; details: Lolium multiflorum, pre-emergence, 336 h, scale 0 to 100, read-out: Plant response rating, Ryegrass, Italian
Summary of the method: as §1

[13] = test system: morningglory (Ipomoea coccinea); experiment: Test C preemergence; details: Ipomoea, pre-emergence, 336 h, scale 0 to 100, read-out: Plant response rating, Morningglory
Summary of the method: as §1

corn (Zea mays) [14] = experiment: Test C preemergence; details: Zea mays, pre-emergence, 336 h, scale 0 to 100
Summary of the method: as §1

[15] = test system: giant foxtail (Setaria faberii); experiment: Test C preemergence; details: Setaria faberi, pre-emergence, 336 h, scale 0 to 100, read-out: Plant response rating, Foxtail, Giant
Summary of the method: as §1

[16] = test system: blackgrass (Alopecurus myosuroides); experiment: Test C preemergence; details: Alopecurus myosuroides, pre-emergence, 336 h, scale 0 to 100, read-out: Plant response rating, Blackgrass
Summary of the method: as §1

[17] = test system: barnyardgrass (Echinochloa crus-galli); experiment: Test C preemergence; details: Echinochloa crus-galli, pre-emergence, read-out: Plant response rating, Barnyardgrass
Summary of the method: as §1

[18] = test system: waterhemp (common waterhemp, Amaranthus rudis); experiment: Test C preemergence; details: Amaranthus tuberculatus, pre-emergence, scale 0 to 100, read-out: Plant response rating, Waterhemp
Summary of the method: as §1

[19] = test system: winter wheat (Triticum aestivum); experiment: Test C preemergence; details: Triticum aestivum, pre-emergence, 336 h, scale 0 to 100, read-out: Plant response rating, Wheat
Summary of the method: as §1

[20] = test system: velvetleaf (Abutilon theophrasti); experiment: Test C preemergence; details: Abutilon theophrasti, pre-emergence, scale 0 to 100, read-out: Plant response rating, Velvetleaf
Summary of the method: as §1

[21] = test system: oilseed rape (Brassica napus); experiment: Test C preemergence; details: Brassica napus, pre-emergence, scale 0 to 100, read-out: Plant response rating, Oilseed Rape
Summary of the method: as §1

[22] = test system: pigweed (Amaranthus retroflexus); experiment: Test C preemergence; details: Amaranthus retroflexus, pre-emergence, 336 h, scale 0 to 100, read-out: Plant response rating, Pigweed
Summary of the method: as §1

N#Cc1cccc(Oc2ncc(Cl)cn2)c1Oc1cnc(Cl)cn1 [Compound 32, 2-[(5-chloro-2-pyrazinyl)oxy]-3-[(5-chloro-2-pyrimidinyl)oxy]benzonitrile]
50%: pest or weed control at 31 g/ha ([12]; 31 g ai/ha, preemergence) | pest or weed control at 16 g/ha ([17]; Preemergence, 16 g ai/ha, scale 0 to 100 (0 no effect, 100 complete control))
90%: pest or weed control at 31 g/ha ([1]; 31 g ai/ha) | pest or weed control at 125 g/ha ([1]; 125 g ai/ha) | pest or weed control at 31 g/ha ([9]; 31 g ai/ha, preemergence) | pest or weed control at 62 g/ha ([9]; 62 g ai/ha, preemergence) | plant injury at 125 g/ha (soybean (Glycine max) [10]; 125 g ai/ha, preemergence) | pest or weed control at 125 g/ha ([12]; 125 g ai/ha, preemergence) | pest or weed control at 125 g/ha ([13]; 125 g ai/ha, preemergence) | pest or weed control at 62 g/ha ([16]; 62 g ai/ha, preemergence)
95%: pest or weed control at 125 g/ha ([5]; 125 g ai/ha) | pest or weed control at 62 g/ha ([6]; 62 g ai/ha) | pest or weed control at 125 g/ha ([6]; 125 g ai/ha) | pest or weed control at 125 g/ha ([16]; 125 g ai/ha, preemergence) | plant injury at 31 g/ha ([21]; 31 g ai/ha, preemergence) | plant injury at 62 g/ha ([21]; 62 g ai/ha, preemergence) | plant injury at 125 g/ha ([21]; 125 g ai/ha, preemergence)
25%: Corn plant response rating (crop injury, 0 = no effect, 100 = complete kill) at 62 g/ha (corn (Zea mays) [4]; 62 g ai/ha) | Corn plant response rating (crop injury, 0 = no effect, 100 = complete kill) at 125 g/ha (corn (Zea mays) [4]; 125 g ai/ha)
98%: pest or weed control at 31 g/ha ([11]; 31 g ai/ha, preemergence) | pest or weed control at 16 g/ha ([11]; Preemergence, 16 g ai/ha) | pest or weed control at 31 g/ha ([15]; 31 g ai/ha, preemergence) | pest or weed control at 62 g/ha ([17]; 62 g ai/ha, preemergence, scale 0 to 100)
100%: pest or weed control at 62 g/ha ([8]; 62 g ai/ha, preemergence) | pest or weed control at 125 g/ha ([8]; 125 g ai/ha, preemergence) | pest or weed control at 125 g/ha ([9]; 125 g ai/ha, preemergence) | pest or weed control at 62 g/ha ([11]; 62 g ai/ha, preemergence) | pest or weed control at 125 g/ha ([11]; 125 g ai/ha, preemergence) | pest or weed control at 62 g/ha ([15]; 62 g ai/ha, preemergence) | pest or weed control at 125 g/ha ([15]; 125 g ai/ha, preemergence) | pest or weed control at 125 g/ha ([17]; 125 g ai/ha, preemergence, scale 0 to 100) | pest or weed control at 31 g/ha ([18]; 31 g ai/ha, preemergence) | pest or weed control at 62 g/ha ([18]; 62 g ai/ha, preemergence) | pest or weed control at 125 g/ha ([18]; 125 g ai/ha, preemergence) | pest or weed control at 16 g/ha ([18]; Preemergence, 16 g ai/ha) | pest or weed control at 31 g/ha ([22]; 31 g ai/ha, preemergence) | pest or weed control at 62 g/ha ([22]; 62 g ai/ha, preemergence) | pest or weed control at 125 g/ha ([22]; 125 g ai/ha, preemergence) | pest or weed control at 16 g/ha ([22]; Preemergence, 16 g ai/ha)
10%: pest or weed control at 31 g/ha ([13]; 31 g ai/ha, preemergence) | plant injury at 16 g/ha ([21]; Preemergence, 16 g ai/ha)
75%: pest or weed control at 125 g/ha ([7]; 125 g ai/ha, preemergence) | pest or weed control at 62 g/ha ([20]; 62 g ai/ha, preemergence)
60%: pest or weed control at 62 g/ha ([7]; 62 g ai/ha, preemergence) | pest or weed control at 16 g/ha ([9]; Preemergence, 16 g ai/ha) | Corn plant response rating (crop injury, 0 = no effect, 100 = complete kill) at 31 g/ha (corn (Zea mays) [14]; 31 g ai/ha, preemergence)
55%: pest or weed control at 31 g/ha ([2]; 31 g ai/ha) | plant injury at 16 g/ha (soybean (Glycine max) [10]; Preemergence, 16 g ai/ha)
20%: Corn plant response rating (crop injury, 0 = no effect, 100 = complete kill) at 16 g/ha (corn (Zea mays) [4]; 16 g ai/ha) | Corn plant response rating (crop injury, 0 = no effect, 100 = complete kill) at 31 g/ha (corn (Zea mays) [4]; 31 g ai/ha) | pest or weed control at 16 g/ha ([13]; Preemergence, 16 g ai/ha)
5%: pest or weed control at 16 g/ha ([7]; Preemergence, 16 g ai/ha) | pest or weed control at 16 g/ha ([12]; Preemergence, 16 g ai/ha) | Corn plant response rating (crop injury, 0 = no effect, 100 = complete kill) at 16 g/ha (corn (Zea mays) [14]; Preemergence, 16 g ai/ha) | plant injury at 125 g/ha ([19]; 125 g ai/ha, preemergence) | pest or weed control at 16 g/ha ([20]; Preemergence, 16 g ai/ha)
80%: pest or weed control at 16 g/ha ([1]; 16 g ai/ha) | pest or weed control at 62 g/ha ([2]; 62 g ai/ha) | pest or weed control at 125 g/ha ([2]; 125 g ai/ha) | pest or weed control at 16 g/ha ([6]; 16 g ai/ha) | pest or weed control at 31 g/ha ([6]; 31 g ai/ha) | pest or weed control at 62 g/ha ([12]; 62 g ai/ha, preemergence)
70%: pest or weed control at 31 g/ha ([16]; 31 g ai/ha, preemergence)
40%: pest or weed control at 16 g/ha ([8]; Preemergence, 16 g ai/ha) | pest or weed control at 62 g/ha ([13]; 62 g ai/ha, preemergence) | pest or weed control at 31 g/ha ([20]; 31 g ai/ha, preemergence)
45%: plant injury at 31 g/ha (soybean (Glycine max) [10]; 31 g ai/ha, preemergence) | plant injury at 62 g/ha (soybean (Glycine max) [10]; 62 g ai/ha, preemergence)
0%: pest or weed control at 16 g/ha ([16]; Preemergence, 16 g ai/ha) | plant injury at 31 g/ha ([19]; 31 g ai/ha, preemergence) | plant injury at 62 g/ha ([19]; 62 g ai/ha, preemergence) | plant injury at 16 g/ha ([19]; Preemergence, 16 g ai/ha)
65%: plant injury at 31 g/ha (soybean (Glycine max) [3]; 31 g ai/ha) | Corn plant response rating (crop injury, 0 = no effect, 100 = complete kill) at 62 g/ha (corn (Zea mays) [14]; 62 g ai/ha, preemergence) | Corn plant response rating (crop injury, 0 = no effect, 100 = complete kill) at 125 g/ha (corn (Zea mays) [14]; 125 g ai/ha, preemergence)
35%: pest or weed control at 31 g/ha ([7]; 31 g ai/ha, preemergence)
85%: pest or weed control at 62 g/ha ([1]; 62 g ai/ha) | plant injury at 62 g/ha (soybean (Glycine max) [3]; 62 g ai/ha) | plant injury at 125 g/ha (soybean (Glycine max) [3]; 125 g ai/ha) | pest or weed control at 31 g/ha ([5]; 31 g ai/ha) | pest or weed control at 62 g/ha ([5]; 62 g ai/ha) | pest or weed control at 31 g/ha ([8]; 31 g ai/ha, preemergence) | pest or weed control at 16 g/ha ([15]; Preemergence, 16 g ai/ha) | pest or weed control at 31 g/ha ([17]; 31 g ai/ha, preemergence, scale 0 to 100) | pest or weed control at 125 g/ha ([20]; 125 g ai/ha, preemergence)
